These results are taken from US20130165428A1, “XANTHINE DERIVATIVES, THE PREPARATION THEREOF AND THEIR USE AS PHARMACEUTICAL COMPOSITIONS” (Boehringer Ingelheim Pharma GmbH & Co. KG, priority 2001, published 2013).

SMILES strings stand for the structures.

The melting point is the temperature, or range, at which the solid turns liquid. Turning to `CC(C)=CCn1c(N2CCCC(N)C2)nc2c1c(=O)n(CCc1cccc([N+](=O)[O-])c1)c(=O)n2C` (stereo not shown) [Example 1(99), 1-[2-(3-nitro-phenyl)-ethyl]-3-methyl-7-(3-methyl-2-buten-1-yl)-8-(3-amino-piperidin-1-yl)-xanthine], the melting point was 120.8 to 122 °C.

In turn, `Cn1c(=O)c2c(nc(N3CCCC(N)C3)n2C)n(C)c1=O` (stereo not shown) [Example 1(115), 1,3,7-trimethyl-8-(3-amino-piperidin-1-yl)-xanthine] gave a melting point of 147 °C.

`CC(C)=CCn1c(N2CCCC(N)C2)nc2c1c(=O)n(C)c(=O)n2CCC#N` (stereo not shown) [Example 2(62), 1-methyl-3-(2-cyano-ethyl)-7-(3-methyl-2-buten-1-yl)-8-(3-amino-piperidin-1-yl)-xanthine] showed a melting point of 146 to 149 °C.

Consider `CC(C)=CCn1c(N2CCCC(N)C2)nc2c1c(=O)n(CCc1c(C)cc(C)cc1C)c(=O)n2C` (stereo not shown) [Example 1(36), 1-[2-(2,4,6-trimethyl-phenyl)-ethyl]-3-methyl-7-(3-methyl-2-buten-1-yl)-8-(3-amino-piperidin-1-yl)-xanthine], for which the melting point lay within 153 to 154.5 °C.

`CC(C)=CCn1c(N2CCCC(N)C2)nc2c1c(=O)n(CCc1cc(F)cc(F)c1)c(=O)n2C` (stereo not shown) [Example 2(36), 1-[2-(3,5-difluoro-phenyl)-ethyl]-3-methyl-7-(3-methyl-2-buten-1-yl)-8-(3-amino-piperidin-1-yl)-xanthine] yielded a melting point of 162 to 163.5 °C.

On to `CC(C)=CCn1c(N2CCC[C@H](N)C2)nc2c1c(=O)n(CCC(=O)O)c(=O)n2C` [Example 6(4), 1-(2-carboxy-ethyl)-3-methyl-7-(3-methyl-2-buten-1-yl)-8-((S)-3-amino-piperidin-1-yl)-xanthine], for which the melting point fell in the range of 226 to 228 °C.

Consider `C=CCCn1c(=O)c2c(nc(N3CCCC(N)C3)n2CC=C(C)C)n(C)c1=O` (stereo not shown) [Example 1(66), 1-(3-butene-1-yl)-3-methyl-7-(3-methyl-2-buten-1-yl)-8-(3-amino-piperidin-1-yl)-xanthine], for which the melting point lay in the range of 111 to 112.6 °C.

In the case of `CC(C)=CCn1c(N2CCC[C@H]2CN)nc2c1c(=O)n(C)c(=O)n2C` [Example 1(76), 1,3-dimethyl-7-(3-methyl-2-buten-1-yl)-8-{(S)-[2-(aminomethyl)-pyrrolidin-1-yl]}-xanthine], the melting point lay in the range of 112 to 115 °C.

As to `CN[C@H]1CCCC[C@H]1Nc1nc2c(c(=O)n(C)c(=O)n2C)n1CC=C(C)C` (relative stereo) [Example 1(77), 1,3-dimethyl-7-(3-methyl-2-buten-1-yl)-8-[cis-(2-methylamino-cyclohexyl)amino]-xanthine], the melting point is 172.5 to 175 °C.

Compound `CC(C)=CCn1c(N2CCCC(N)C2)nc2c1c(=O)n(CCc1ccccc1)c(=O)n2CC(=O)O` (stereo not shown) [Example 6(5), 1-(2-phenyl-ethyl)-3-carboxymethyl-7-(3-methyl-2-buten-1-yl)-8-(3-amino-piperidin-1-yl)-xanthine] returned a melting point of 228 to 235 °C.

Take `CCOC(=O)c1ccc(CCn2c(=O)c3c(nc(N4CCC[C@H](N)C4)n3CC=C(C)C)n(C)c2=O)cc1` [Example 2(21), 1-{2-[4-(ethoxycarbonyl)-phenyl]-ethyl}-3-methyl-7-(3-methyl-2-buten-1-yl)-8-((S)-3-amino-piperidin-1-yl)-xanthine]: the melting point was in the range of 142 to 144 °C.

For the compound `CC(C)=CCn1c(N2CCCC(N)C2)nc2c1c(=O)n(CCc1cccc(F)c1)c(=O)n2C` (stereo not shown) [Example 1(98), 1-[2-(3-fluoro-phenyl)-ethyl]-3-methyl-7-(3-methyl-2-buten-1-yl)-8-(3-amino-piperidin-1-yl)-xanthine], the melting point was in the range of 126.8 to 127.5 °C.

`CC(C)=CCn1c(N(C)CC(N)C(=O)N2CCCC2)nc2c1c(=O)n(C)c(=O)n2C` (stereo not shown) [Example 2(142), 1,3-dimethyl-7-(3-methyl-2-buten-1-yl)-8-{N-[2-amino-3-oxo-3-(pyrrolidin-1-yl)-propyl]-N-methyl-amino}-xanthine] registered a melting point of 138 °C.
